What was measured:
[1] = system: MCF-7 breast adenocarcinoma cells; assay: MCF-7 Proliferation Assay; format: cell-based; settings: Homo sapiens, MCF7, tritiated thymidine, 48 hours
Description: MCF-7 breast adenocarcinoma cells (ATCC HTB 22) were maintained in MEM (minimal essential medium, phenol red-free, Sigma, St. Louis, Mo.) supplemented with 10% fetal bovine serum (FBS) (V/V), L-glutamine (2 mM), sodium pyruvate (1 mM), HEPES {(N-[2-hydroxyethyl]piperazine-N'-[2-ethanesulfonic acid]10 mM}, non-essential amino acids and bovine insulin (1 ug/mL) (maintenance medium). Ten days prior to assay, MCF-7 cells were switched to maintenance medium supplemented with 10% dextran coated charcoal stripped fetal bovine serum (DCC-FBS) assay medium) in place of 10% FBS to deplete internal stores of steroids. MCF-7 cells were removed from maintenance flasks using cell dissociation medium (Ca++/Mg++free HBSS (phenol red-free) supplemented with 10 mM HEPES and 2 mM EDTA). Cells were washed twice with assay medium and adjusted to 80,000 cells/mL. Approximately 100 μL (8,000 cells) were added to flat-bottom microculture wells (Costar 3596) and incubated at 37° C. in a 5% CO2 humidified incubator for 48 hours to allow for cell adherence and equilibration after transfer. Serial dilutions of drugs or DMSO as a diluent control were prepared in assay medium and 50 μL transferred to triplicate microcultures followed by 50 μL assay medium for a final volume of 200μ. After an additional 48 hours at 37° C. in a 5% CO2 humidified incubator, microcultures were pulsed with tritiated thymidine (1 uCi/well) for 4 hours. Cultures were terminated by freezing at -70° C. for 24 hours followed by thawing and harvesting of microcultures using a Skatron Semiautomatic Cell Harvester. Samples were counted by liquid scintillation using a Wallac BetaPlace β counter. Results in Table 4 below show the IC50 for certain compounds of the present invention.

[2] = system: Uterine Eosinophil Peroxidase (EPO); assay: Uterine Eosinophil Peroxidase (EPO) Assay (Table 1); format: in vivo, female Sprague Dawley rats; parameters: key to Uterine EPO (V. max): Vmax of absorbance increase at 450 nm, monitored over 1 min; settings: OVX rats, daily for 4 days
Source text: (§1) Seventy-five day old female Sprague Dawley rats (weight range of 200 to 225 g) were obtained from Charles River Laboratories (Portage, Mich.). The animals were either bilaterally ovariectomized (OVX) or exposed to a sham surgical procedure at Charles River Laboratories, and then shipped after one week. Upon arrival, they were housed in metal hanging cages in groups of 3 or 4 per cage and had ad libitum access to food (calcium content approximately 0.5%) and water for one week. Room temperature was maintained at 22.2° ±1.7° C. with a minimum relative humidity of 40%. The photoperiod in the room was 12 hours light and 12 hours dark.
(§2) Dosing Regimen Tissue Collection. After a one week acclimation period (therefore, two weeks post-OVX) daily dosing with test compound was initiated. 17α-ethynyl estradiol or the test compound were given orally, unless otherwise stated, as a suspension in 1% carboxymethylcellulose or dissolved in 20% cyclodextrin. Animals were dosed daily for 4 days. Following the dosing regimen, animals were weighed and anesthetized with a ketamine: Xylazine (2:1, V:V) mixture and a blood sample was collected by cardiac puncture. The animals were then sacrificed by asphyxiation with CO2, the uterus was removed through a midline incision, and a wet uterine weight was determined.
Uterine Eosinomhil Peroxidase (EPO) Assay. Uteri were kept at 4° C. until time of enzymatic analysis. The uteri were then homogenized in 50 volumes of 50 mM Tris buffer (pH-8.0) containing 0.005% Triton X-100. Upon addition of 0.01% hydrogen peroxide and 10 mM O-phenylenediamine (final concentrations) in Tris buffer, increase in absorbance was monitored for one minute at 450 nm. The presence of eosinophils in the uterus is an indication of estrogenic activity of a compound. The maximal velocity of a 15 second interval was determined over the initial, linear portion of the reaction curve.
As is expressed in the below data, estrogenicity also was assessed by evaluating the response of eosinophil infiltration into the uterus.
(§3) The data presented in Table 1 below reflects the response of 5 to 6 rats per treatment.

[3] = system: uterus; assay: Uterine weight in ovariectomized rats, 4-day oral dosing (Table 1); format: in vivo, female Sprague Dawley rats; settings: Rattus norvegicus, po, 96 h, OVX rats, daily for 4 days, read-out: Uterine Wt. (% inc. vs. OVX); for change in vivo at 0.1 mg/kg: 0.1 mg/kg oral; for change in vivo at 1 mg/kg: 1 mg/kg oral; for change in vivo at 10 mg/kg: 10 mg/kg oral
Description: In the examples illustrating the methods, a post-menopausal model was used in which effects of different treatments upon circulating lipids were determined.
as §1, §2
(§4) Data presented in Table 1 below show comparative results among ovariectomized rats, rats treated with 17α-ethynyl estradiol (EE2; an orally available form of estrogen), and rats treated with certain compounds of the present invention. […] This uterine response to estrogen is well recognized in the art.
as §3

[4] = system: Serum cholesterol; assay: Serum cholesterol in ovariectomized rats, 4-day oral dosing (Table 1); format: in vivo, female Sprague Dawley rats; settings: Rattus norvegicus, po, 96 h, OVX rats, daily for 4 days; for inhibition in vivo at 0.1 mg/kg: 0.1 mg/kg oral
Source text: as §1, §2
Cholesterol Analysis. Blood samples were allowed to clot at room temperature for 2 hours, and serum was obtained following centrifugation for 10 minutes at 3000 rpm. Serum cholesterol was determined using a Boehringer Mannheim Diagnostics high performance cholesterol assay. Briefly the cholesterol was oxidized to cholest-4-en-3-one and hydrogen peroxide. The hydrogen peroxide was then reacted with phenol and 4-aminophenazone in the presence of peroxidase to produce a p-quinone imine dye, which was read spectrophotometrically at 500 nm. Cholesterol concentration was then calculated against a standard curve. The entire assay was automated using a Biomek Automated Workstation.
as §4, §3

[5] = read-out: Serum Cholesterol (% dec. vs. OVX)

IC50 [1]	Structure (SMILES)	Uterine EPO (V. max) ([2]; 0.1 mg/kg oral)	Uterine EPO (V. max) ([2]; 1 mg/kg oral)	Uterine EPO (V. max) ([2]; 10 mg/kg oral)	change in vivo at 0.1 mg/kg [3]	change in vivo at 1 mg/kg [3]	change in vivo at 10 mg/kg [3]	inhibition in vivo at 0.1 mg/kg [4, 5]	inhibition in vivo at 1 mg/kg ([4]; 1 mg/kg oral, read-out: Serum Cholesterol (% dec. vs. OVX))	inhibition in vivo at 10 mg/kg ([4]; 10 mg/kg oral, read-out: Serum Cholesterol (% dec. vs. OVX))	ED50 ([4]; oral, dose column in mg/kg, read-out: ED50 (effective dose to dec. serum chol. by 50%))	Uterine EPO (V. max) ([2]; 25 mg/kg oral)	change in vivo at 25 mg/kg ([3]; 25 mg/kg oral)	inhibition in vivo at 25 mg/kg ([4]; 25 mg/kg oral, read-out: Serum Cholesterol (% dec. vs. OVX))
0.009 µM	Oc1ccc(-c2ccc(-c3ccc(O)cc3)c(-c3ccc(OCCN4CCCC4)cc3)n2)cc1 [Example 14, 2-[4-[2-(1-Pyrrolidinyl)ethoxy]phenyl]-3,6-bis(4-hydroxyphenyl)pyridine]	2.4	4.5	4.2	6.3%	-3.3%	8.8%	11.9%	-16.5%	-7.3%	> 10 mg/kg	–	–	–
0.185 µM	Oc1ccc(-c2ccc(-c3ccc(F)cc3)nc2-c2ccc(OCCN3CCCCC3)cc2)cc1 [Example 12, 2-[4-[2-(1-Piperidinyl)ethoxy]phenyl]-3-(4-hydroxyphenyl)-6-(4-fluorophenyl)pyridine]	5.9	–	–	9.8%	4.2%	76.2%	26.2%	–	–	–	67.9	68%	49.9%
